Assay [1] deals with human chronic myelocytic leukemia-derived K562 cells. The assay is described as follows: Cell growth inhibition test with K562 cells (WST-1). It counts as cell-based. The note with it: 72 hours, read-out: 50% growth inhibition concentration (GI50). The procedure: In a 96-well plate (Nunc), human chronic myelocytic leukemia-derived K562 cells were sown in an amount of 1500 cells/well, and pre-incubated in 10% FCS-containing Rosewell Park Memorial Institute's Medium (RPMI) 1640 (Nissui) (incubation medium) in a 5% carbon dioxide incubator at 37° C. for 5 hours. Next, a DMSO solution of a test compound controlled at 10 mmol/L was stepwise diluted with the incubation medium, and added to each well in a total amount of 100 μL/well, and further incubated in the 5% carbon dioxide incubator at 37° C. for 72 hours. After the incubation, WST-1-labeled mixture (Rosh Diagnostic) diluted 2-fold with the incubation medium was added thereto in an amount of 20 μL/well, and incubated in the 5% carbon dioxide incubator at 37° C. for 2 hours. Using a microplate spectrophotometer (Biorad's Model 550), the absorbance at 450 nm and 655 nm of each well was measured. The cell growth inhibition activity of the test compound was indicated by the 50% growth inhibition concentration (GI50) thereof, like in Test Example 2.
A general note: Tetrazolium assays rely on reduction of a dye to a coloured formazan, in cell work by metabolically active cells.

Assay [2] relates to human mammary cancer-derived KPL-4 cells. As to the kind of experiment: Cell growth inhibition test with KPL-4 cells (WST-1). As to conditions: KPL4, 72 hours, read-out: 50% growth inhibition concentration (GI50). It counts as cell-based. In short, it runs like this: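 KPL-4 cells pre-incubated 24 h in 10% FCS DMEM, then exposed to serially diluted compound for 72 h at 37 °C, 5% CO2. WST-1 added for 1 h; A450 minus A655 read. GI50 relative to untreated cells.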

Molecules are shown by their SMILES. Bounds are passed on as bounds.

As to `CCc1c(O)cc(O)c(-c2cccc(C(=O)N(C)C)c2)c1CC1O[C@@H](CO)[C@H](CO)O1` [Compound 290, 5-{[(4S,5S)-4,5-Bis(hydroxymethyl)-1,3-dioxolan-2-yl]methyl}-4-[3-(dimethylcarbamoyl)phenyl]-6-ethylbenzene-1,3-diol], the GI50 in assay [1] was at most 50 µM.

As to `CCc1c(O)cc(O)c(-c2cccc(NC(C)=O)c2)c1CC1O[C@@H](CO)[C@H](CO)O1` [Compound 284, 4-[3-(acetylamino)phenyl]-5-{[(4S,5S)-4,5-bis(hydroxymethyl)-1,3-dioxolan-2-yl]methyl}-6-ethylbenzene-1,3-diol], the GI50 in assay [1] is at most 50 µM.

Take `CCc1c(O)cc(O)c(-c2ccccc2)c1Cc1n[nH]c(=O)o1` [Compound 315, 5-[(2-ethyl-3,5-dihydroxy-6-phenylphenyl)methyl]-3H-1,3,4-oxadiazol-2-one]: the GI50 in assay [1] is at most 50 µM.

On to `CCc1c(O)cc(O)c(-c2cccc(C(=O)NC3CC3)c2)c1CC1O[C@H](CO)[C@@H](CO)O1` [Compound 305, 5-{[(4R,5R)-4,5-Bis(hydroxymethyl)-1,3-dioxolan-2-yl]methyl}-4-[3-(2-cyclopropylcarbamoyl)phenyl]-6-ethylbenzene-1,3-diol], for which the GI50 in assay [1] is at most 50 µM.

As for `CCc1c(OC(C)=O)cc(OC(C)=O)c(-c2ccccc2)c1CCOCCOC` [Compound 328, 1,5-Bis(acetyloxy)-4-ethyl-3-[2-(2-methoxyethoxy)ethyl]-2-phenylbenzene], in assay [1], the GI50 was at most 50 µM.

As for `CCc1c(O)cc(O)c(-c2ccc(F)c(Cl)c2)c1CC1O[C@@H](CO)[C@H](CO)O1` [Compound 301, 5-{[(4S,5S)-4,5-Bis(hydroxymethyl)-1,3-dioxolan-2-yl]methyl}-4-(3-chloro-4-fluorophenyl)-6-ethylbenzene-1,3-diol], the GI50 in assay [1] is at most 50 µM.

Consider `CC(=O)c1c(O)cc(O)c(-c2cccc(O)c2)c1CCOCCO` [Compound 310, 1-{2,4-Dihydroxy-6-[2-(2-hydroxyethoxy)ethyl]-5-(3-hydroxyphenyl)phenyl}ethanone], for which the GI50 in assay [1] was at most 50 µM.

As for `CCc1c(O)cc(O)c(-c2ccccc2)c1CC(O)(CCCO)CCCO` [Compound 199, 6-Ethyl-5-[2,5-dihydroxy-2-(3-hydroxypropyl)pentyl]-4-phenylbenzene-1,3-diol], the GI50 in assay [1] is at most 50 µM.

For `CCc1c(O)cc(O)c(-c2cccc(C(N)=O)c2)c1CC1O[C@H](CO)[C@@H](CO)O1` [Compound 295, 5-{[(4R,5R)-4,5-bis(hydroxymethyl)-1,3-dioxolan-2-yl]methyl}-4-(3-carbamoylphenyl)-6-ethylbenzene-1,3-diol], the GI50 in assay [1] was at most 50 µM.

Consider `OC[C@H]1OC(Cc2c(Cl)c(O)cc(O)c2-c2ccccc2)O[C@@H]1CO` [Compound 280, 5-{[(4R,5R)-4,5-bis(hydroxymethyl)-1,3-dioxolan-2-yl]methyl}-6-chloro-4-phenylbenzene-1,3-diol], for which the GI50 in assay [1] is at most 50 µM.

With `CCc1c(O)cc(O)c(-c2ccccc2)c1CC1O[C@H](COC)[C@@H](COC)O1` [Compound 308, 5-{[(4R,5R)-4,5-Bis(methoxymethyl)-1,3-dioxolan-2-yl]methyl}-6-ethyl-4-phenylbenzene-1,3-diol], the GI50 in assay [1] was at most 50 µM.

As to `CCc1c(O)cc(O)c(-c2cccc(OC)c2)c1CC1O[C@@H](CO)[C@H](CO)O1` [Compound 233, 5-{[(4S,5S)-4,5-Bis(hydroxymethyl)-1,3-dioxolan-2-yl]methyl}-6-ethyl-4-(3-methoxyphenyl)benzene-1,3-diol], the GI50 in assay [1] was at most 50 µM.

Regarding `CCc1c(O)cc(O)c(-c2ccccc2)c1CCC(N)=O` [Compound 212, 3-(2-Ethyl-3,5-dihydroxy-6-phenylphenyl)propanamide], the GI50 in assay [1] is at most 50 µM.

Regarding `CCc1c(O)cc(O)c(-c2cccc(C(=O)NC)c2)c1CC1O[C@@H](CO)[C@H](CO)O1` [Compound 289, 5-{[(4S,5S)-4,5-Bis(hydroxymethyl)-1,3-dioxolan-2-yl]methyl}-6-ethyl-4-[3-(methylcarbamoyl)phenyl]benzene-1,3-diol], the GI50 in assay [1] was at most 50 µM.

In the case of `CCc1c(O)cc(O)c(-c2cccc(NS(=O)(=O)c3ccc(C)cc3)c2)c1CCOCC(O)CO` (stereo not drawn) [Compound 203, 5-[2-(2,3-Dihydroxypropoxy)ethyl]-6-ethyl-4-{3-[N-(4-tolylsulfonyl)amino]phenyl}benzene-1,3-diol], the GI50 in assay [1] was at most 50 µM.

On to `CCc1c(O)cc(O)c(-c2cccc(OC)c2)c1Cc1nn(CCO)c(=O)o1` [Compound 323, 5-{[2-Ethyl-3,5-dihydroxy-6-(3-methoxyphenyl)phenyl]methyl}-3-(2-hydroxyethyl)-3H-1,3,4-oxadiazol-2-one], for which the GI50 in assay [1] is at most 50 µM.

Take `CCc1c(O)cc(O)c(-c2ccccc2)c1CC(=O)N(CCO)CCCOC` [Compound 322, 2-(2-Ethyl-3,5-dihydroxy-6-phenylphenyl)-N-(2-hydroxyethyl)-N-(3-methoxypropyl)acetamide]: the GI50 in assay [1] is at most 50 µM.

`CCc1c(O)cc(O)c(-c2cccc(C(=O)NC)c2)c1CC1O[C@H](CO)[C@@H](CO)O1` [Compound 294, 5-{[(4R,5R)-4,5-Bis(hydroxymethyl)-1,3-dioxolan-2-yl]methyl}-6-ethyl-4-[3-(methylcarbamoyl)phenyl]benzene-1,3-diol]: in assay [1], the GI50 was at most 50 µM.

Take `CCc1c(O)cc(O)c(-c2ccccc2)c1CCN1C(=O)OCC1C(=O)OC` (stereo not drawn) [Compound 319, Methyl 3-[2-(2-ethyl-3,5-dihydroxy-6-phenylphenyl)ethyl]-2-oxo-1,3-oxazolidine-4-carboxylate]: in assay [1], the GI50 was at most 50 µM.

With `COC(=O)Cc1cc(O)cc(O)c1-c1ccc(CCC(C)=O)o1` [Compound 261, Methyl 3,5-dihydroxy-2-[5-(3-oxobutyl)furan-2-yl]phenylacetate], the GI50 in assay [1] was at most 50 µM.

Consider `COC(=O)CCc1c(Br)c(O)cc(O)c1-c1ccccc1` [Compound 87, Methyl 3-(2-bromo-3,5-dihydroxy-6-phenylphenyl)propanoate], for which the GI50 in assay [2] was at most 50 µM.

Regarding `CCc1c(O)cc(O)c(-c2ccccc2)c1CC(O)CC(O)CO` (stereo not drawn) [Compound 177, 6-Ethyl-4-phenyl-5-(2,4,5-trihydroxypentyl)benzene-1,3-diol], the GI50 in assay [2] was at most 50 µM.

Consider `CCc1c(O)cc(O)c(-c2ccccc2)c1CC(O)C(O)CO` (stereo not drawn) [Compound 180, 6-Ethyl-4-phenyl-5-(2,3,4-trihydroxybutyl)benzene-1,3-diol], for which, in assay [2], the GI50 is at most 50 µM.

As for `CCc1c(OC)cc(O)c(-c2ccccc2)c1CC(=O)OC` [Compound 126, Methyl 6-ethyl-3-hydroxy-5-methoxy-2-phenylphenylacetate], in assay [2], the GI50 was at most 50 µM.

On to `COC(=O)Cc1cc(O)cc(O)c1-c1cccc(OC(F)(F)F)c1` [Compound 74, Methyl 3,5-dihydroxy-2-[3-(trifluoromethoxy)phenyl]phenylacetate], for which the GI50 in assay [2] is at most 50 µM.

Consider `N#Cc1cccnc1N1CCN(C(=O)Cc2c(Br)c(O)cc(O)c2-c2ccccc2)CC1` [Compound 90, 2-(2-Bromo-3,5-dihydroxy-6-phenylphenyl)-1-[4-(3-cyanopyridin-2-yl)piperazin-1-yl]ethanone], for which the GI50 in assay [2] is at most 50 µM.

As to `COc1cccc(-c2c(O)cc(O)c(Br)c2CC(C)=NO)c1` [Compound 107, 6-Bromo-5-[2-(hydroxyimino)propyl]-4-(3-methoxyphenyl)benzene-1,3-diol], the GI50 in assay [2] was at most 50 µM.

`CCc1c(O)cc(O)c(-c2cccc(C(=O)OC)c2)c1CCOC` [Compound 131, Methyl 3-[5-ethyl-2,4-dihydroxy-6-(2-methoxyethyl)phenyl]benzoate]: the GI50 in assay [2] was at most 50 µM.

With `CC(=O)Cc1c(Br)c(O)cc(O)c1-c1ccccc1` [Compound 65, 1-(2-Bromo-3,5-dihydroxy-6-phenylphenyl)propan-2-one], the GI50 in assay [2] was at most 50 µM.

Regarding `COCCOCc1c(Br)c(O)cc(O)c1-c1ccccc1` [Compound 71, 6-Bromo-5-[(2-methoxyethoxy)methyl]-4-phenylbenzene-1,3-diol], the GI50 in assay [2] is at most 50 µM.

`COCCc1c(Br)c(O)cc(O)c1-c1cccc(C(N)=O)c1` [Compound 117, 3-[5-Bromo-2,4-dihydroxy-6-(2-methoxyethyl)phenyl]benzamide]: the GI50 in assay [2] was at most 50 µM.

Turning to `C=CCOCCc1c(CC)c(O)cc(O)c1-c1ccccc1` [Compound 144, 5-(2-Allyloxyethyl)-6-ethyl-4-phenylbenzene-1,3-diol], the GI50 in assay [2] was at most 50 µM.

Turning to `COCCc1c(Br)c(O)cc(O)c1-c1cccc(OC)c1` [Compound 105, 6-Bromo-5-(2-methoxyethyl)-4-(3-methoxyphenyl)benzene-1,3-diol], the GI50 in assay [2] is at most 50 µM.

As for `COC(=O)Cc1c(Br)c(O)cc(O)c1-c1ccccc1` [Compound 10, Methyl 2-bromo-3,5-dihydroxy-6-phenylphenylacetate], the GI50 in assay [2] is at most 50 µM.

As for `CCCN(C)C(=O)Cc1c(Br)c(O)cc(O)c1-c1ccccc1` [Compound 36, 2-(2-Bromo-3,5-dihydroxy-6-phenylphenyl)-N-methyl-N-propylacetamide], the GI50 in assay [2] is at most 50 µM.

For the compound `COC(=O)Cc1c(Cc2ccccc2)c(O)cc(O)c1-c1ccccc1` [Compound 70, Methyl 2-benzyl-3,5-dihydroxy-6-phenylphenylacetate], the GI50 in assay [2] was at most 50 µM.

(Values after patent US7538241B2, “Hsp90 family protein inhibitors” (Kyowa Hakko Kogyo Co., Ltd., priority 2003, dated 2009).)
